# Source: US20160262664A1, “Detection Of Disease Using Gesture Writing Bio-Markers” (priority 2015, published 2016)
# Tested on: PD patient
# Assay: EMG analysis during rest, postural and writing activity in the same subject before and after medication (monitoring of drug effectiveness)
# Type: in vivo
# Details: after meds
# Source text: Technology for detecting Parkinson's disease (PD) comprises of a group of indicators (endpoints) that are based on various Electromyography (EMG) properties of hand muscles during gesture writing as well as kinematics and pen traces. Gesture writing is the type of writing, when part of the time a pen is touching the tablet (writing activity) and part of the time a pen is not touching the tablet (postural activity). During postural period a hand is held against gravity. Postural EMG activity can be found programmatically by analyzing the writing activity, since it is known from the tablet recording when a pen was touching a tablet and not touching the tablet. In addition, EMG at rest is recorded, while both hands are lying on a table. The properties of resting EMG signals are also included in the analysis. Two differential channels of EMG are recorded from each hand. EMG recordings are synchronized with the input from the tablet PC.
# In one example, 100 trials were administered. A beep sound denotes the end of one trial and beginning of the next trial. Writing activity was analyzed while a subject was writing a number “3” in cursive. The length of each trial was 5 sec. During “rest,” trials with a length of 5 sec each were generated. Postural trials were selected by a computer program. 100 trials for each type of activity were recorded. A large number of trials (around 100) is very important in the analysis, because muscle activity has high variability. A statistical ensemble is created in order for statistical analysis to be applied. A confidence interval was calculated to confirm the existence of peaks in Fast Fourier Transform (FFT).
# Condition 1: Resting. The experimental session started with a recording where the participants were resting with both hands, forearms, and elbows on the table. During one continuous recording the experimenter triggered at least 25 trials of 5 seconds by touching the electronic pen on the tablet after each beep. In total 4 such files were recorded with 1-minute pauses in between, yielding 100 resting trials in total. During the pause the participants rested their hands on their knees.
# Condition 2: Character-Writing and postural control of pen lift. After the resting session the participants were instructed to wait with the pen lifted while the entire forearm including elbow rested on the table. Upon hearing the beep participants were to touch the tablet with the pen and write character “3” as fast and convenient as possible and then lift the pen until the next beep. The next beep was automatically generated 4 seconds after the pen lift. As the participants were instructed to keep their forearms resting on the table the thumb muscles were optimally involved in producing character “3”. The non-writing arm rested on the table as in the resting condition. The writing segment was defined as the 5-second segment starting 2 seconds before the pen touched the writing surface till 3 seconds after that (See FIG. 3). We also defined a postural segment starting when the pen was lifted till the beep that was generated 4 seconds later. Thus each trial included a writing segment and a postural segment. The experimenter ensured that after the first trial at least 25 good trials were recorded. The experimenter ensured that at least 25 successful trials were recorded. This means that the subject had to write a complete character and only after that they lift up the pen and waited for a beep to start writing another character. All trials, including incidentally failed trials (except first and last one) were included in the analysis. After recording 25 acceptable trials, the participant was instructed to pause for 1 minute with both hands on the knees like in the resting condition. In total 4 files of 5 minutes were recorded yielding 100 trials.
# Our Norconnect DH software (written in MATLAB, MathWorks, Natick, Mass., USA) processed the EMGs and handwriting kinematics to quantify 8 PD indicators (See Table 2). […]
# [1] = EMG spectral peak, in 4 channels
structure (smiles),measurement,setting,value
C#CCN[C@@H]1CCc2ccccc21 [Rosageline],"Tremor, Postural",[1],No (in 4
same,"Tremor, Rest",[1],No (in 4
same,"Stiffness, spectral density maximum, Postural, ch3",ch3 left hand,ch.3: 2 mV
same,"Stiffness, spectral density maximum, Postural, ch4",ch4 left hand,ch4: 1.1 (mV)
same,"Weakness, mean intensity, Writing, ch1","criterion <0.005 mV^2, ch1",ch1: 0.003 mV^2
same,"Weakness, mean intensity, Writing, ch2","criterion <0.005 mV^2, ch2",ch2: 0.018 (mV^2)
same,"Stiffness, spectral density maximum, Rest, ch1","criterion >0.5 mV, ch1 right hand",ch1: 2 mV
same,"Stiffness, spectral density maximum, Rest, ch2","criterion >0.5 mV, ch2 right hand",ch2: 2.4 mV
same,"Stiffness, spectral density maximum, Rest, ch3","criterion >0.5 mV, ch3 left hand",ch3: 0.6 mV
same,"Stiffness, spectral density maximum, Rest, ch4","criterion >0.5 mV, ch4 left hand",ch4: 0.6 (mV)
same,"Stiffness, spectral density maximum, Postural, ch1","criterion >1 mV, ch1 right hand",ch1: 2 mV
same,"Stiffness, spectral density maximum, Postural, ch2","criterion >1 mV, ch2 right hand",ch2: 7.5 mV
